From patent US20130344157A1, “ENHANCEMENT OF THE EFFICACY OF THERAPEUTIC PROTEINS” (North-West University, priority 2007, published 2013)

Legend:
blood glucose levels [1] = test: Decrease in % blood glucose levels after intra-gastric administration; type: in vivo, Male Sprague Dawley rats; conditions: 50 IU/kg
blood glucose levels [2] = test: Decrease in % blood glucose levels after intra-ileal administration; type: in vivo, Male Sprague Dawley rats; conditions: 50 IU/kg
blood glucose levels [3] = test: % blood glucose decrease after intranasal administration; type: in vivo, Male Sprague Dawley rats; conditions: for Tmax of % blood glucose decrease: sampling times in minutes
Procedure: The cannulation of the carotis communis artery for the collection of blood samples was also performed as described in Example 1 as was the determination of plasma levels and blood glucose levels.

[4] = rat, in vivo
Procedure: Male Sprague Dawley rats with a body mass of between 240 and 336 g were used as experimental in vivo model to investigate the absorption and efficacy enhancing capabilities of the current invention.
In this study, insulin was directly administered into the stomach, ileum or duodenum of the animals. […] Six animals were used for each group in the study. Rats were fasted 18 hours prior to drug administration but water was supplied ad libitum. […] The conditions under which the rats were bred and kept were 21° C. with a relative humidity of 55%, a light intensity of between 350-400 lux one meter above floor level with light cycles of 12 hours light and 12 dark and 18 air changes per minute.
Subcutaneous injection of insulin in one group was used to validate assaying procedures. The normal rat glucose and insulin profile was determined in a group that received only saline; this group acted as biological reference.
Cannulation of the artery carotis communis, ensured that sufficient blood volumes from the same rat at different time intervals could be obtained for analysis. Anaesthesia was induced by halothane and lasted for ±3 hours. All surgical procedures necessary for the cannulation of the carotis communis were carried out while the rats were under anaesthesia. […]

Insulin in saline: Control: recombinant human insulin (Sigma-Aldrich) in saline solution without any enhancing agent
AUC, decrease in the % of blood glucose levels (blood glucose levels [1]): 275.5 | Tmax, decrease in the % of blood glucose levels (blood glucose levels [1]): 30 min | AUC, decrease in the % of blood glucose levels (blood glucose levels [2]): 13.81 | Tmax, decrease in the % of blood glucose levels (blood glucose levels [2]): 10 min | AUC of % blood glucose decrease (blood glucose levels [3]; 8 IU/kg): 46 | Cmax of % blood glucose decrease (blood glucose levels [3]; 8 IU/kg): 10.03% | Tmax of % blood glucose decrease (blood glucose levels [3]; 8 IU/kg): 15 | % blood glucose decrease (blood glucose levels [3]; 8 IU/kg, time 0 min): 0% | % blood glucose decrease (blood glucose levels [3]; 8 IU/kg, time 5 min): −1.18% | % blood glucose decrease (blood glucose levels [3]; 8 IU/kg, time 10 min): 5.58% | % blood glucose decrease (blood glucose levels [3]; 8 IU/kg, time 15 min): 10.033% | % blood glucose decrease (blood glucose levels [3]; 8 IU/kg, time 30 min): 5.27% | % blood glucose decrease (blood glucose levels [3]; 8 IU/kg, time 60 min): 3.47% | % blood glucose decrease (blood glucose levels [3]; 8 IU/kg, time 120 min): 2.05% | % blood glucose decrease (blood glucose levels [3]; 8 IU/kg, time 180 min): −26.58% | AUC of % blood glucose decrease (blood glucose levels [3]; 12 IU/kg): 32.2 | Cmax of % blood glucose decrease (blood glucose levels [3]; 12 IU/kg): 6.48% | Tmax of % blood glucose decrease (blood glucose levels [3]; 12 IU/kg): 5 | % blood glucose decrease (blood glucose levels [3]; 12 IU/kg, time 0 min): 0% | % blood glucose decrease (blood glucose levels [3]; 12 IU/kg, time 5 min): 6.48% | % blood glucose decrease (blood glucose levels [3]; 12 IU/kg, time 10 min): −0.08% | % blood glucose decrease (blood glucose levels [3]; 12 IU/kg, time 15 min): −4.4% | % blood glucose decrease (blood glucose levels [3]; 12 IU/kg, time 30 min): −8.32% | % blood glucose decrease (blood glucose levels [3]; 12 IU/kg, time 60 min): −13.98% | % blood glucose decrease (blood glucose levels [3]; 12 IU/kg, time 120 min): −30.7% | % blood glucose decrease (blood glucose levels [3]; 12 IU/kg, time 180 min): −40.55% | Tmax [4]: 5 min
